{"source": "patent US20030119813A1", "about": "“Derivatives of pyrimido[6,1-a]isoquinolin-4-one” (priority 2001, published 2003)", "key": {"[1]": {"system": "LPS induced TNF-α release from human monocytes", "assay": "LPS induced TNF-α release from human monocytes", "type": "cell-based", "details": "Monocyte", "description": "6,7-Dihydro-2-(2,6-diisopropylphenoxy)-9,10-dimethoxy-4H-pyrimido-[6,1-a]isoquinolin-4-one (compound of Example 2) was tested for effects on LPS induced TNF-α release from human monocytes."}, "[2]": {"system": "guinea-pig isolated trachea", "assay": "Superfusion of guinea-pig tracheal rings, contraction to electrical field stimulation", "details": "for inhibition of contractile responses, duration of action: electrical-induced contraction of guinea-pig isolated trachea; for OT50 (onset time: time to reach 50% of the maximum inhibition of the contractile response) / RT50 (recovery time: time for 50% reversal of the maximum inhibition after terminating exposure): superfused guinea-pig trachea, electrical field stimulation, 10 μM; for OT50 (onset time: time to reach 50% of the maximum inhibition of the contractile response): mean and s.e. mean of three observations; for RT50 (recovery time: time for 50% reversal of the maximum inhibition after terminating exposure): washout", "description": "Superfusion of guinea-pig tracheal rings was performed according to a previously described method (Coleman et al. Pulmonary Pharmacology 9 107-117 (1996)). Briefly, guinea-pig tracheal preparations were cut into rings and then opened by sectioning the ring opposite the smooth muscle and suspended between two platinum electrodes under 1 g tension. The tissues were superfused at a rate of from 1 to 3.25 ml/min with Krebs-Henseleit solution at 37° C. containing the cyclooxygenase inhibitor, indomethacin (5 μM) and bubbled with 95% O2 and 5% CO2. Tracheal preparations were allowed to equilibrate for 40 minutes before commencement of electrical stimulation, delivered as a 10 s train of square wave pulses at 3 Hz, 0.1 ms duration and 20V (approx 400 mamps) generated every 100 sec by means of physiological square wave-stimulator. The compounds of the present invention were superfused at a rate of 0.2 to 0.3 ml/min ad contractile responses to electrical field stimulation were recorded on a Macintosh computer using MacLab sor vare. The drug was prepared in DMSO and diluted in Krebs-Henseleit solution which yielded a final superfusion concentration of 0.05 to 0.1% DMSO.\nThe duration of action was determined and expressed as onset time (OT50) and recovery time (RT50)."}, "[3]": {"system": "human mononuclear cells stimulated by PHA", "assay": "Proliferation of human mononuclear cells stimulated by PHA ([3H]-thymidine)", "type": "cell-based", "details": "PHA 2 μg/ml, n=6, read-out: IC50 against proliferation of human mononuclear cells stimulated with PHA", "description": "Normal healthy volunteers underwent phlebotomy and 25 ml of blood was collected. Mononuclear cells were separated and purified according to the method of Banner et al. (Banner et al. Br. J. Pharmacol. 116 3169-3174 (1995)). Human peripheral mononuclear cells (100,000 per well) were stimulated for 24 h with phytohaemagglutinin (PHA, 2 μg/ml) in the absence or presence of the compounds of Examples 1, 2 and 8 (0.001-100 μM) at 37° C. in a 95% air, 5% CO2 atmosphere. Twenty four hours later, [^3H]-thymidine (0.1 μCi) was added to each well and the cells were incubated for a further 24 h period. Cells were then harvested onto glass fibre filters using a cell harvester (ICN Flow, Buckinghamshire) and counted in a scintillation counter."}, "[4]": {"system": "guinea-pig tracheal rings", "assay": "Organ bath experiments, guinea-pig tracheal rings, electrical field stimulation", "details": "final concentration 10 μM, n=1", "description": "Guinea-pig tracheal rings were suspended in organ baths under 1 g tension between two electrodes and subjected to electrical field stimulation (3 Hz, 0.1 ms duration and 20V (approx 400 mAmps) generated every 100 sec by means of physiological square wave-stimulator. The compounds of Examples 1, 2 and 8 were dissolved in DMSO containing Tween 80 (10%) and distilled water (0.01M), which were then added to the organ bath to give a final concentration of 10 μM."}, "[5]": {"system": "histamine induced bronchospasm", "assay": "Histamine induced bronchospasm, inhaled dry powder, guinea-pig", "type": "in vivo", "description": "1. The above compound was tested in a model of histamine induced bronchospasm. Conscious guinea-pigs were exposed to dry powder (micronised) of the compound. The drug was blended with lactose so that the final concentration was 0.25, 2.5 and 25%. At various times after exposure to drug the animals were anaesthetised and challenged with varying doses of histamine. Total airway resistance and mean arterial blood pressure were recorded."}, "[6]": {"system": "recruitment of eosinophils to the lungs", "assay": "Antigen induced eosinophilia in the ovalbumin sensitised guinea-pig", "type": "in vivo", "details": "10 mg/kg orally 1 hour prior to antigen challenge, ovalbumin sensitised guinea-pigs"}, "PDE3 (human platelet)": {"target": "T1, PDE3 (human platelet) (Homo sapiens, UniProt Q14432)", "T1 construct": "(human platelet); from tissue; host or cells: human platelets", "T1 sequence (Q14432 whole entry)": "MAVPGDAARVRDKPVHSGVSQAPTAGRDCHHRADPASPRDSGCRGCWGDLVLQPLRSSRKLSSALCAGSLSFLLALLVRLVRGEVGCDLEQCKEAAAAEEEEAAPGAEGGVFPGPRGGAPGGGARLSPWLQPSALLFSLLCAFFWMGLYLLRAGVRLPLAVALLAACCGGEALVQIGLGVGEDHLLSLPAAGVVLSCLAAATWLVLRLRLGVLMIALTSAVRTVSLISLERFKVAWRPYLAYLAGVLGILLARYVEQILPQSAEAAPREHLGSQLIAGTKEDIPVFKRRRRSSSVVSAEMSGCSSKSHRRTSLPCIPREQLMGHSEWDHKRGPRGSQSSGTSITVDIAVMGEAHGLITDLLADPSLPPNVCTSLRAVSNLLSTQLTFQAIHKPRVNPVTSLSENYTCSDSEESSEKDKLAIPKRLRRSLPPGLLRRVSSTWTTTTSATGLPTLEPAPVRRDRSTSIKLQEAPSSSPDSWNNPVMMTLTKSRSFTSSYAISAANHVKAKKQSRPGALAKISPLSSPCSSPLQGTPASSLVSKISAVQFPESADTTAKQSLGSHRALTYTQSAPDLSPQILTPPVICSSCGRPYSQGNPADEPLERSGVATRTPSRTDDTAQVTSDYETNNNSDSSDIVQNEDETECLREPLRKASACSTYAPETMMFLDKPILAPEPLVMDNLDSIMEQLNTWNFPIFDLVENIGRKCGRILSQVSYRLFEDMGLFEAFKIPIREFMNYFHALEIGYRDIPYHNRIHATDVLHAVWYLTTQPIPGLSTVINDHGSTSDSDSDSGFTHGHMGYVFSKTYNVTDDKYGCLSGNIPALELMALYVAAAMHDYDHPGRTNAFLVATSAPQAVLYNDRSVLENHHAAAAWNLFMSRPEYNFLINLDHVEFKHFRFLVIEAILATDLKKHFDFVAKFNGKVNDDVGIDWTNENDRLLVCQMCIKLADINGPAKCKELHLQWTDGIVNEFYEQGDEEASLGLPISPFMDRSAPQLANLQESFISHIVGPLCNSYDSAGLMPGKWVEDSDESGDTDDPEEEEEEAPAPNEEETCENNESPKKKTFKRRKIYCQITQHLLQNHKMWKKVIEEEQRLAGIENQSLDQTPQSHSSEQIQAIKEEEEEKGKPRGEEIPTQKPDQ", "assay": "PDE3 inhibition", "type": "biochemical"}, "PDE4 (human neutrophil)": {"system": "PDE4 (human neutrophil)", "assay": "PDE4 inhibition", "type": "biochemical"}, "[7]": {"system": "mean arterial blood pressure", "assay": "Intravenous administration to urethane anaesthetised guinea-pigs, mean arterial blood pressure", "type": "in vivo, guinea-pig", "details": "0.1 to 300 μg/kg", "description": "2. […] The compound was dissolved in DMSO then diluted with saline (there was evidence that the compound had come out of solution)."}}}
{"smiles": "CN/C(=N\\c1ccc(C2=NNC(=O)CC2C)cc1)NC#N", "note": "(centres unmarked) [Siguazodan]", "values": [{"measurement": "IC50", "setting": "[1]; unit printed in the cell beside the value", "value": "> 100", "unit": "µM"}]}
{"smiles": "CCc1cccc(CC)c1Oc1cc2n(c(=O)n1)CCc1cc(OC)c(OC)cc1-2", "note": "[Example 3, 2-(2,6-diethylphenoxy)-6,7-dihydro-9,10-dimethoxy-4H-pyrimido-[6,1-a]isoquinolin-4-one]", "values": [{"measurement": "inhibition of contractile responses, duration of action", "setting": "[2]", "value": "inhibit the contractile responses with a long duration of action"}, {"measurement": "OT50 (onset time: time to reach 50% of the maximum inhibition of the contractile response)", "setting": "[2]", "value": "17 ± 1", "unit": "min"}, {"measurement": "RT50 (recovery time: time for 50% reversal of the maximum inhibition after terminating exposure)", "setting": "[2]", "value": ">240", "unit": "min"}]}
{"smiles": "COc1ccc([C@H](Cc2ccncc2)c2ccccc2)cc1OC1CCCC1", "note": "[CDP 840]", "values": [{"measurement": "IC50", "setting": "[1]; n = 6", "value": 0.092, "unit": "µM"}]}
{"smiles": "COc1cc2c(cc1OC)-c1cc(Oc3c(C)cccc3C)nc(=O)n1CC2", "note": "[Example 1, 6,7-Dihydro-2-(2,6-dimethylphenoxy)-9,10-dimethoxy-4H-pyrimido-[6,1-a]isoquinolin-4-one]", "values": [{"measurement": "IC50", "setting": "[3]", "value": 5.13, "unit": "µM"}, {"measurement": "inhibition of the contractile response to electrical field stimulation", "setting": "[4]", "value": "complete inhibition"}]}
{"smiles": "COc1cc2c(cc1OC)-c1cc(Oc3c(C(C)C)cccc3C(C)C)nc(=O)n1CC2", "note": "[Example 2, 6,7-Dihydro-2-(2,6-diisopropylphenoxy)-9,10-dimethoxy-4H-pyrimido-[6,1-a]isoquinolin-4-one]", "values": [{"measurement": "IC50", "setting": "[1]; n = 6", "value": 0.25, "unit": "µM"}, {"measurement": "protection against histamine induced bronchospasm (total airway resistance)", "setting": "[5]; conscious guinea-pigs exposed to dry powder (25% in lactose)", "value": "significant protection against histamine induced bronchospasm"}, {"measurement": "effect on mean arterial blood pressure", "setting": "[5]; guinea-pigs, inhaled dry powder (25%)", "value": "without changing mean arterial blood pressure"}, {"measurement": "recruitment of eosinophils to the lungs following antigen challenge", "setting": "[6]", "value": "significantly inhibited"}, {"measurement": "IC50", "setting": "PDE3 (human platelet)", "value": 0.107, "unit": "µM"}, {"measurement": "IC50", "setting": "[3]", "value": 2.9, "unit": "µM"}, {"measurement": "inhibition of contractile responses, duration of action", "setting": "[2]", "value": "inhibit the contractile responses with a long duration of action"}, {"measurement": "OT50 (onset time: time to reach 50% of the maximum inhibition of the contractile response)", "setting": "[2]", "value": "24.9 ± 5.0", "unit": "min"}, {"measurement": "RT50 (recovery time: time for 50% reversal of the maximum inhibition after terminating exposure)", "setting": "[2]", "value": ">240", "unit": "min"}, {"measurement": "inhibition of the contractile response to electrical field stimulation", "setting": "[4]", "value": "complete inhibition"}, {"measurement": "IC50", "setting": "PDE4 (human neutrophil)", "value": 1.2, "unit": "µM"}, {"measurement": "effect on mean arterial blood pressure", "setting": "[7]", "value": "dose dependant reduction in mean arterial blood pressure"}]}
{"smiles": "CCc1ccccc1Oc1cc2n(c(=O)n1)CCc1cc(OC)c(OC)cc1-2", "note": "[Example 12, 9,10-Dimethoxy-2-(2-ethylphenoxy)-6,7-dihydro-4H-pyrimido[6,1-a]isoquinolin-4-one]", "values": [{"measurement": "inhibition of contractile responses, duration of action", "setting": "[2]", "value": "inhibit the contractile responses with a long duration of action"}, {"measurement": "OT50 (onset time: time to reach 50% of the maximum inhibition of the contractile response)", "setting": "[2]", "value": "9.7 ± 0.6", "unit": "min"}, {"measurement": "RT50 (recovery time: time for 50% reversal of the maximum inhibition after terminating exposure)", "setting": "[2]", "value": 263, "unit": "min"}]}
{"smiles": "COc1cc2c(cc1OC)-c1cc(=Nc3c(C)cc(C)cc3C)n(C)c(=O)n1CC2", "note": "[Trequinsin, 9,10-dimethoxy-3-methyl-2-mesitylimino-2,3,6,7-tetrahydro-4H-pyrimido[6,1-a]isoquinolin-4-one, reference compound]", "values": [{"measurement": "OT50 (onset time: time to reach 50% of the maximum inhibition of the contractile response)", "setting": "[2]", "value": 14, "unit": "min"}, {"measurement": "RT50 (recovery time: time for 50% reversal of the maximum inhibition after terminating exposure)", "setting": "[2]", "value": 146, "unit": "min"}]}
{"smiles": "COc1cc2c(cc1OC)-c1cc(Oc3ccccc3CC(C)C)nc(=O)n1CC2", "note": "[Example 10, 9,10-Dimethoxy-2-(2-isobutylphenoxy)-6,7-dihydro-4H-pyrimido[6,1-a]isoquinolin-4-one]", "values": [{"measurement": "inhibition of contractile responses, duration of action", "setting": "[2]", "value": "inhibit the contractile responses with a long duration of action"}, {"measurement": "OT50 (onset time: time to reach 50% of the maximum inhibition of the contractile response)", "setting": "[2]", "value": "17.5 ± 1.25", "unit": "min"}, {"measurement": "RT50 (recovery time: time for 50% reversal of the maximum inhibition after terminating exposure)", "setting": "[2]", "value": ">300", "unit": "min"}]}
{"smiles": "COc1cc2c(cc1OC)-c1cc(Oc3ccccc3C3CCCC3)nc(=O)n1CC2", "note": "[Example 13, 2-(2-Cyclopentylphenoxy)-9,10-dimethoxy-6.7-dihydro-4H-pyrimido[6,1-a]-isoquinolin-4-one]", "values": [{"measurement": "inhibition of contractile responses, duration of action", "setting": "[2]", "value": "inhibit the contractile responses with a long duration of action"}, {"measurement": "OT50 (onset time: time to reach 50% of the maximum inhibition of the contractile response)", "setting": "[2]", "value": "18.6 ± 1.5", "unit": "min"}, {"measurement": "RT50 (recovery time: time for 50% reversal of the maximum inhibition after terminating exposure)", "setting": "[2]", "value": ">300", "unit": "min"}]}
{"smiles": "COc1cc2c(cc1OC)-c1cc(Oc3c(Cl)cccc3Cl)nc(=O)n1CC2", "note": "[Example 8, 2-(2,6-Dichlorophenoxy)-6,7-dihydro-9,10-dimethoxy-4H-pyrimido-[6,1-a]isoquinolin-4-one]", "values": [{"measurement": "IC50", "setting": "[3]", "value": 8.22, "unit": "µM"}, {"measurement": "inhibition of the contractile response to electrical field stimulation", "setting": "[4]", "value": "complete inhibition"}]}
{"smiles": "COc1cc2c(cc1OC)-c1cc(Oc3ccccc3C(C)(C)C)nc(=O)n1CC2", "note": "[Example 11, 2-(2-tert-butylphenoxy)-9,10-dimethoxy-6,7-dihydro-4H-pyrimido[6,1-a]isoquinolin-4-one]", "values": [{"measurement": "inhibition of contractile responses, duration of action", "setting": "[2]", "value": "inhibit the contractile responses with a long duration of action"}, {"measurement": "OT50 (onset time: time to reach 50% of the maximum inhibition of the contractile response)", "setting": "[2]", "value": "14.7 ± 1.33", "unit": "min"}, {"measurement": "RT50 (recovery time: time for 50% reversal of the maximum inhibition after terminating exposure)", "setting": "[2]", "value": ">300", "unit": "min"}]}
